The text below walks through data of US6441006B2, “Pharmaceutical compositions and methods for use” (Targacept, Inc., priority 1998, dated 2002).

Assay [1] deals with T1, CNS nicotinic receptors (Rattus norvegicus, UniProt P09483+P12390).
T1 construct: Ki
The experiment in a line: Binding to relevant receptor sites. As to conditions: calculated from IC50 values using the method of Cheng et al. The method, then: Binding of the compounds to relevant receptor sites was determined in accordance with the techniques described in U.S. Pat. No. 5,597,919 to Dull et al. Inhibition constants (Ki values), reported in nM, were calculated from the IC50 values using the method of Cheng et al., Biochem, Pharmacol. 22:3099 (1973).

For assay [2], the system named is Rat brain synaptosomes. The experiment in a line: Neurotransmitter release from brain synaptosomes. Format: biochemical. As to conditions: in the presence of 10 µM of ligand; percentage of release obtained with 10 µM (S)-(-)-nicotine or 300 µM TMA. The protocol:
Neurotransmitter release was measured using techniques similar to those previously published (Bencherif M, et al. JPET 279: 1413-1421, 1996).
Rat brain synaptosomes were prepared as follows: Female Sprague Dawley rats (100-200 g) were killed by decapitation after anesthesia with 70% CO2. Brains are dissected, and hippocampus, striatum, and thalamus isolated, and homogenized in 0.32 M sucrose containing 5 mM HEPES pH 7.4 using a glass/glass homogenizer. The tissue was then centrifuged for 1000×g for 10 minutes and the pellet discarded. The supernatant was centrifuged at 12000×g for 20 minutes. The resultant pellet was re-suspended in perfusion buffer (128 mM NaCl, 1.2 mM KH2PO4, 2.4 mM KCl, 3.2 mM CaCl2, 1.2 mM MgSO4, 25 mM HEPES, 1 mM Ascorbic acid, 0.01 mM pargyline HCl and 10 mM glucose pH 7.4) and centrifuged for 15 minutes at 25000×g. The final pellet was resuspended in perfusion buffer and placed in a water bath (37° C.) for 10 minutes. Radiolabeled neurotransmitter is added (30 L^3H DA, 20 L^3H NE, 10 L^3H glutamate) to achieve a final concentration of 100 nM, vortexed and placed in a water bath for additional 10 minutes. Tissue-loaded filters is placed onto 11-mm diameter Gelman A/E filters on an open-air support. After a 10-minute wash period, fractions are collected to establish the basal release and agonist applied in the perfusion stream. Further fractions were collected after agonist application to re-establish the baseline. The perfusate was collected directly into scintillation vials and released radioactivity was quantified using conventional liquid scintillation techniques. Release of neurotransmitter was determined in the presence of […] of various ligands and was expressedas a percentage of release obtained with a concentration of 10 M (S)-(−)-nicotine or 300 MTMA resulting in maximal effects.

Assay [3] has as its system ganglia-type nicotinic acetylcholine receptors. The experiment in a line: Interaction with ganglion receptors. Format: cell-based. To be noted: Emax, percentage of maximal activation induced by (S)-(-)-nicotine. The protocol: (§1) The determination of the interaction of the compounds with ganglionic receptors was carried out in accordance with the techniques described in U.S. Pat. No. 5,597,919 to Dull et al. The maximal activation for individual compounds (Emax) was determined as a percentage of the maximal activation induced by (S)-(−)-nicotine. Reported Emax values represent the amount released relative to (S)-(−)-nicotine on a percentage basis. […] Such preferable compounds have the capability to activate human CNS receptors without activating ganglia-type nicotinic acetylcholine receptors. Thus, there is provided a therapeutic window for utilization in the treatment of CNS disorders. […] The compounds begin to cause effects at ganglia only when employed in amounts of many times those required to activate dopamine release.
The determination of the interaction of the compounds with ganglionic receptors was carried out in accordance with the techniques described in U.S. Pat. No. 5,597,919 to Dull et al. The maximal activation for individual compounds (Emax) was determined as a percentage of the maximal activation induced by (S)-(−)-nicotine. Reported Emax values represent the amount released relative to (S)-(−)-nicotine on a percentage basis.

Assay [4] concerns the target T2, muscle-type nicotinic acetylcholine receptors (Homo sapiens, UniProt P02708+P07510+Q07001).
T2 construct: endogenous in cells; host or cells: TE671/RD (own knowledge of the cited US 5,597,919)
Description: Interaction with muscle receptors. Format: cell-based. To be noted: Emax, percentage of maximal activation induced by (S)-(-)-nicotine. The method, then: as §1, with “muscle” for “ganglionic”, “muscle-type” for “ganglia-type”, “cause muscle” for “cause”, “effects” for “effects at ganglia”

Several values for one entry are separate records, joined by “and”; a condition that tells them apart may be missing. Equal values may be shown once.

T2 sequence (P02708 21-457): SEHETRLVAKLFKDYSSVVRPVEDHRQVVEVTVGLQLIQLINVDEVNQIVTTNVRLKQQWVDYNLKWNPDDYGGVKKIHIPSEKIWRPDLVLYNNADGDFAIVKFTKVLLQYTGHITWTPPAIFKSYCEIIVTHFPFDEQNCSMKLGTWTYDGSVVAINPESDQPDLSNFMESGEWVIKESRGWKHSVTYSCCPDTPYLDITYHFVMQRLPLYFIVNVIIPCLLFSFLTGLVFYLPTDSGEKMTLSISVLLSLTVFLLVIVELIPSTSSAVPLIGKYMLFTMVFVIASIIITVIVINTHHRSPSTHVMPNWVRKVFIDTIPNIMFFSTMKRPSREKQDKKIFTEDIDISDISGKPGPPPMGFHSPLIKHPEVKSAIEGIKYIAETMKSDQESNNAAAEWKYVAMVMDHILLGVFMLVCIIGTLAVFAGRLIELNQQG
T2 sequence (P11230 24-501 partner): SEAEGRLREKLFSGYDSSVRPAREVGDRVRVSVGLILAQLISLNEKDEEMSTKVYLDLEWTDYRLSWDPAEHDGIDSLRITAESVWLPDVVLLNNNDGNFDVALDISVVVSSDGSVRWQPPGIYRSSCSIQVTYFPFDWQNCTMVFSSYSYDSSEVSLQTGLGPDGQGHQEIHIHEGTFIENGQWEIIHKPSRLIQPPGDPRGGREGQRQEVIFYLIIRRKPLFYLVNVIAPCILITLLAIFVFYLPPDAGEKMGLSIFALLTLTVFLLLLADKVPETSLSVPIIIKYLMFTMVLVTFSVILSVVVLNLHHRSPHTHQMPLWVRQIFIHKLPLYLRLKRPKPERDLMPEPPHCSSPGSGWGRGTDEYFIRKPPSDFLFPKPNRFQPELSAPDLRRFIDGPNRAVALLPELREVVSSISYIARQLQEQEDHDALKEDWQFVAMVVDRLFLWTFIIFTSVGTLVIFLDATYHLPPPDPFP
T2 sequence (Q07001 22-517): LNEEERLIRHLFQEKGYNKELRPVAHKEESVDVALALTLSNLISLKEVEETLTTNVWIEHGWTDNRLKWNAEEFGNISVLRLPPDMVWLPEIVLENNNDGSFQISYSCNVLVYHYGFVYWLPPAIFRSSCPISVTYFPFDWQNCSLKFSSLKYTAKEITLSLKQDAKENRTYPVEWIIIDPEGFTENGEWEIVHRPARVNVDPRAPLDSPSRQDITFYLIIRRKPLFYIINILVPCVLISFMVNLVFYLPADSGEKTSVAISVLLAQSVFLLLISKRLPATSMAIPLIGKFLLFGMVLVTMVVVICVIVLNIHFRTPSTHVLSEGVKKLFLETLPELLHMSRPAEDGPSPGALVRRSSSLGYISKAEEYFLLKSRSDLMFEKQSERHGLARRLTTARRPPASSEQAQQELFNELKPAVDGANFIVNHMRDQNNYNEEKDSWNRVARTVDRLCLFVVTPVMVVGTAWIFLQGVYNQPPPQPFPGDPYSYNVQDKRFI
T2 sequence (P07510 23-517): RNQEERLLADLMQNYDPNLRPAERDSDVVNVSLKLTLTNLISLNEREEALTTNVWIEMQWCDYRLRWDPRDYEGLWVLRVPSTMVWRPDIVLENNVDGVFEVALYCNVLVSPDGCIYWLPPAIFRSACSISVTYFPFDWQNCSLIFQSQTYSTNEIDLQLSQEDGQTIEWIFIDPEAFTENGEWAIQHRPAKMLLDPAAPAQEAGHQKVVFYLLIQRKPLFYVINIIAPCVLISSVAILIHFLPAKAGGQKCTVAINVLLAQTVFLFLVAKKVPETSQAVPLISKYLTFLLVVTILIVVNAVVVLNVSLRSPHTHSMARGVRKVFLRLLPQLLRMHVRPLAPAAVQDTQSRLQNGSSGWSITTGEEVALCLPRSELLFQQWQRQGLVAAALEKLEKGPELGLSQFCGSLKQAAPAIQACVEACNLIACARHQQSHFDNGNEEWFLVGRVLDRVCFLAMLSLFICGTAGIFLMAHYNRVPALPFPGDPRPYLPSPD
T1 sequence (P09483 31-630): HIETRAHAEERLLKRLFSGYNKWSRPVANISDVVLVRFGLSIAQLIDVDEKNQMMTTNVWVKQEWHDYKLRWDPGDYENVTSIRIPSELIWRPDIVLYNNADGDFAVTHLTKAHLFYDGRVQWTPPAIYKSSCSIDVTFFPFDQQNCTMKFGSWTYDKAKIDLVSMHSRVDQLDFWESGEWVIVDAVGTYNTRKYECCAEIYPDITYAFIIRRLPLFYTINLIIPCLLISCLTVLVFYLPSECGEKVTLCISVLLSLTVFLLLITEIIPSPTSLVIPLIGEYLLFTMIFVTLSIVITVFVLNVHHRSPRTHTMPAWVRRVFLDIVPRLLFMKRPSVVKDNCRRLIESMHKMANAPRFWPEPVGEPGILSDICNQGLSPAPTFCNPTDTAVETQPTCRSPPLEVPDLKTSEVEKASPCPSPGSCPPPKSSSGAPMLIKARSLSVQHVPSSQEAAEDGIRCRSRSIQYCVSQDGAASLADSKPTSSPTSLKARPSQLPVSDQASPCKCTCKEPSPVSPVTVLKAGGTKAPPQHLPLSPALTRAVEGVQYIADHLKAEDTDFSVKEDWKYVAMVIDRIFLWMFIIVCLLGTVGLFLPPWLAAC
T1 sequence (P12390 25-500): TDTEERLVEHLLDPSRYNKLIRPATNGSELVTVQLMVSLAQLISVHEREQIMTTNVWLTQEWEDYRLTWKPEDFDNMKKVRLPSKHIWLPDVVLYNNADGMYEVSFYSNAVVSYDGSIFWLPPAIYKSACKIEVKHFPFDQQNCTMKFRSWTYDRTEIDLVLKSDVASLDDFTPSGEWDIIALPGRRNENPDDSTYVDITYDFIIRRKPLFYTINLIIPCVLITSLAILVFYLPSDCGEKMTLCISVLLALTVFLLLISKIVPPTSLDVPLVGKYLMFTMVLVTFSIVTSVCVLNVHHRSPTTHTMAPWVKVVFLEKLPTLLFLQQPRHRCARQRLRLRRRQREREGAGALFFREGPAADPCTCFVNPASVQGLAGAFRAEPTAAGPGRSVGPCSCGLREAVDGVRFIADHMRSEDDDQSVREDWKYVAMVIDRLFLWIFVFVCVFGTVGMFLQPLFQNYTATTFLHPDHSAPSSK

As to “2-(3-Pyridyloxy)ethylamine Hemigalactarate [Example 7]”, the Ki in assay [1] is 1600 nM. In addition, in assay [2], the neurotransmitter release turned out to be 30%.

In the case of “3-(3-Aminopropoxy)phenylamine Hemigalactarate [Example 29]”, the Ki in assay [1] is 442 nM. Also, the neurotransmitter release in assay [2] is reported as 14%.

For the molecule “3-(3-Pyridyloxy)propylamine Hemigalactarate [Example 10]”, the “effect at ganglia sites” value in assay [3] turned out to be 0%. Further, the “effect at muscle sites” value in assay [4] is listed as 0%. For the same molecule, the neurotransmitter release in assay [2] came out at 0%.

On to “3-(5-Chloro-3-pyridyloxy)propylamine Hemigalactarate [Example 15]”, for which the Ki in assay [1] is 46 nM. Also, the “effect at ganglia sites” value in assay [3] turned out to be 4%. In addition, the “effect at muscle sites” value in assay [4] came out at 0%. Further, the neurotransmitter release in assay [2] was 110%.

Consider “4-(3-Pyridyloxy)butylamine Hemigalactarate [Example 12]”, for which the Ki in assay [1] is 232 nM. In addition, the “effect at ganglia sites” value in assay [3] is 11%. For the same molecule, the “effect at muscle sites” value in assay [4] worked out at 0%. In addition, the neurotransmitter release in assay [2] is 100%.

In the case of `CN(C)CCOc1cccnc1` [Example 9, Dimethyl(2-(3-pyridyloxy)ethylamine Hemigalactarate], the “effect at ganglia sites” value in assay [3] is reported as 0%. The “effect at muscle sites” value in assay [4] is reported as 0%. For the same molecule, in assay [2], the neurotransmitter release came to 0%.

For `CC(C)NCCCOc1cccnc1` [Example 23, (Methylethyl)(3-(3-pyridyloxy)propyl)amine], in assay [1], the Ki was 8500 nM. For the same molecule, in assay [2], the neurotransmitter release was determined as 16%.

For the molecule `c1ccc(CNCCCOc2cccnc2)cc1` [Example 24, Benzyl(3-(3-pyridyloxy)propyl)amine], the neurotransmitter release in assay [2] came out at 29%.

Turning to “(2-(5-Bromo(3-pyridylthio))ethyl)methylamine Hemigalactarate [Example 38]”, the inhibition constant (Ki) in assay [1] was 3400 nM.

Turning to “(3-(3-Aminophenoxy)propyl)methylamine Hemigalactarate [Example 30]”, in assay [1], the Ki was 64 nM. The “effect at ganglia sites” value in assay [3] stood at 5%. The “effect at muscle sites” value in assay [4] was 11%. Besides, the neurotransmitter release in assay [2] is 30% and 60%.

For the molecule “(3-(5-Bromo(3-pyridyloxy))propyl)methylamine Hemigalactarate [Example 6]”, the Ki in assay [1] is 44 nM.

With “(3-(5-Chloro(3-pyridyloxy))-1-methylpropyl)methylamine Hemigalactarate [Example 27]”, in assay [1], the Ki was 1600 nM. The neurotransmitter release in assay [2] worked out at 30%.

“(3-(5-Chloro(3-pyridyloxy))propyl)methylamine Hemigalactarate [Example 16]”: the Ki in assay [1] is 11 nM. In addition, the “effect at ganglia sites” value in assay [3] is 7%. Also, in assay [4], the “effect at muscle sites” value was 16%. Further, the neurotransmitter release in assay [2] amounted to 100%.

For the molecule “(3-Benzo[3,4-d]1,3-dioxolan-5-yloxypropyl)methylamine Hemigalactarate [Example 34]”, the Ki in assay [1] is 16600 nM. For the same molecule, in assay [2], the neurotransmitter release is given as 41%.

On to “Cyclopropyl(3-(3-pyridyloxy)propyl)amine Hemigalactarate [Example 25]”, for which the Ki in assay [1] is 165 nM. Also, the “effect at ganglia sites” value in assay [3] was 10%. The “effect at muscle sites” value in assay [4] stood at 9%. For the same molecule, in assay [2], the neurotransmitter release turned out to be 51%.

For “Dimethyl(3-(3-(methylamino)propoxy)phenyl)amine Hemigalactarate [Example 31]”, the Ki in assay [1] is 10000 nM. In addition, the neurotransmitter release in assay [2] is given as 16%.

“Dimethyl(3-(3-pyridyloxy)propyl)amine Hemigalactarate [Example 11]”: the Ki in assay [1] is 126 nM. Also, the “effect at ganglia sites” value in assay [3] is on record as 5%. The “effect at muscle sites” value in assay [4] stood at 8%. The neurotransmitter release in assay [2] turned out to be 32%.

As for “Dimethyl(4-(3-pyridyloxy)butyl)amine Hemigalactarate [Example 14]”, the Ki in assay [1] is 3410 nM. The neurotransmitter release in assay [2] is 24%.

In the case of “Ethyl(3-(3-pyridyloxy)propyl)amine Hemigalactarate [Example 22]”, the Ki in assay [1] was 66 nM. Besides, in assay [3], the “effect at ganglia sites” value came to 13%. The “effect at muscle sites” value in assay [4] stood at 13%. In addition, the neurotransmitter release in assay [2] worked out at 57%.

As to “Methyl(1-methyl-3-(3-pyridyloxy)propyl)amine Hemigalactarate [Example 26]”, the Ki in assay [1] was 138 nM. For the same molecule, in assay [3], the “effect at ganglia sites” value was determined as 20%. Further, in assay [4], the “effect at muscle sites” value stood at 16%. In assay [2], the neurotransmitter release is on record as 49%.

For “Methyl(2-(3-pyridyloxy)ethyl)amine Hemigalactarate [Example 8]”, in assay [1], the Ki was 65 nM. The “effect at ganglia sites” value in assay [3] turned out to be 0%. The “effect at muscle sites” value in assay [4] turned out to be 0%. The neurotransmitter release in assay [2] is on record as 143%.

As to “Methyl(3-(2-methyl(3-pyridyloxy))propyl)amine Hemigalactarate [Example 21]”, the Ki in assay [1] was 236 nM. The “effect at ganglia sites” value in assay [3] turned out to be 15%. The “effect at muscle sites” value in assay [4] is listed as 0%. In assay [2], the neurotransmitter release is reported as 69%.

For the molecule “Methyl(3-(3-nitrophenoxy)propyl)amine Hemigalactarate [Example 28]”, the Ki in assay [1] was 392 nM. Moreover, the “effect at ganglia sites” value in assay [3] worked out at 9%. For the same molecule, in assay [4], the “effect at muscle sites” value is given as 10%. The neurotransmitter release in assay [2] amounted to 67%.

For “Methyl(3-(5-(phenylmethoxy)(3-pyridyloxy))propyl)amine Hemigalactarate [Example 19]”, in assay [1], the Ki is 2 nM. Moreover, the “effect at ganglia sites” value in assay [3] amounted to 3%. Moreover, the “effect at muscle sites” value in assay [4] is 1%. In addition, in assay [2], the neurotransmitter release is given as 38%.

As to “Methyl(3-(5-isopropoxy-3-pyridyloxy)propyl)amine Monogalactarate [Example 18]”, the Ki in assay [1] was 21 nM. Besides, in assay [3], the “effect at ganglia sites” value came to 0%. The “effect at muscle sites” value in assay [4] is 22%. The neurotransmitter release in assay [2] is 36%.

As to “Methyl(3-(5-methoxy-3-pyridyloxy)propyl)amine Hemigalactarate [Example 17]”, the inhibition constant (Ki) in assay [1] is 15 nM. Moreover, the “effect at ganglia sites” value in assay [3] was found to be 5%. The “effect at muscle sites” value in assay [4] is reported as 10%. Further, the neurotransmitter release in assay [2] turned out to be 54%.

On to “Methyl(3-(6-methyl(3-pyridyloxy))propyl)amine Hemigalactarate [Example 20]”, for which the inhibitory constant (Ki) in assay [1] is 12 nM. Moreover, the “effect at muscle sites” value in assay [4] is listed as 0%. The neurotransmitter release in assay [2] was determined as 77%.

As for “Methyl(3-tricyclo[7.3.1.0<5,13>]tridec-2-yloxypropyl)amine Hemigalactarate [Example 32]”, the Ki in assay [1] was 100000 nM.

Consider “Methyl(4-(3-pyridyloxy)butyl)amine Hemigalactarate [Example 13]”, for which the Ki in assay [1] was 5520 nM. For the same molecule, the neurotransmitter release in assay [2] turned out to be 56%.
